Experiments:
[1] = target: T1, PPARα (Homo sapiens, UniProt Q07869); test: PPARα radioligand binding assay (scintillation proximity, GST-PPARα-LBD); conditions: GST-PPARα-LBD fusion protein, SPA radioligand binding
T1 construct: PPARα (aa 167 to 469); made in house; host or cells: E. coli BL21 (pLysS)
T1 sequence (Q07869 167-468 limits assumed): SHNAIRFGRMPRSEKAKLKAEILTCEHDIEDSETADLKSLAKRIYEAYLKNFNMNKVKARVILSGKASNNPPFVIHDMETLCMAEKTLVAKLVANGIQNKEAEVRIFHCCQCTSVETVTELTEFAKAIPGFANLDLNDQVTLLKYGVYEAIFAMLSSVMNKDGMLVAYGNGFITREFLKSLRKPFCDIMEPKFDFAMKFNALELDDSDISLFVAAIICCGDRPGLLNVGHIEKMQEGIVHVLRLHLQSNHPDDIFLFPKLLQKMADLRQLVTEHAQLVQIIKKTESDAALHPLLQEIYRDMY
Excerpt: (§1) Background information on the performed assays can be found in: Nichols J S et al. “Development of a scintillation proximity assay for peroxisome proliferator-activated receptor gamma ligand binding domain”, (1998) Anal. Biochem. 257:112-119.
(§2) Full-length cDNA clones for humans PPARδ and PPARα and mouse PPARγ were obtained by RT-PCR from human adipose and mouse liver cRNA, respectively, cloned into plasmid vectors and verified by DNA sequencing. Bacterial and mammalian expression vectors were constructed to produce glutathione-s-transferase (GST) and Gal4 DNA binding domain proteins fused to the ligand binding domains (LBD) of PPARδ (aa 139 to 442), PPARγ (aa 174 to 476) and PPARα (aa 167 to 469). To accomplish this, the portions of the cloned sequences encoding the LBDs were amplified from the full-length clones by PCR and then subcloned into the plasmid vectors. Final clones were verified by DNA sequence analysis.
(§3) Induction, expression, and purification of GST-LBD fusion proteins were performed in E. coli strain BL21 (pLysS) cells by standard methods (Ref: Current Protocols in Molecular Biology, Wiley Press, edited by Ausubel et al.).
(§4) Radioligand Binding Assay
(§5) PPARα receptor binding was assayed in TKE50 (50 mM Tris-HCl, pH 8, 50 mM KCl, 2 mM EDTA, 0.1 mg/ml fatty acid-free BSA and 10 mM DTT). For each 96 well reaction an 140 ng equivalent of GST-PPARα-LBD fusion protein was bound to 10 μg SPA beads (PharmaciaAmersham) in a final volume of 50 μl by shaking. The resulting slurry was incubated for 1 h at RT and centrifuged for 2 min at 1300 g. The supernatant containing unbound protein was removed and the semidry pellet containing the receptor-coated beads was resolved in 50 μl of TKE. […] All binding assays were performed in 96 well plates and the amount of bound ligand measured on a Packard TopCount using OptiPlates (Packard). Nonspecific binding was determined in the presence of 10^−4 M unlabelled compound. […]

[2] = target: T2, PPARδ (Homo sapiens, UniProt Q03181); test: PPARδ radioligand binding assay (scintillation proximity, GST-PPARδ-LBD); conditions: GST-PPARδ-LBD fusion protein, SPA radioligand binding
T2 construct: PPARδ (aa 139 to 442); made in house; host or cells: E. coli BL21 (pLysS)
T2 sequence (Q03181 139-441 limits assumed): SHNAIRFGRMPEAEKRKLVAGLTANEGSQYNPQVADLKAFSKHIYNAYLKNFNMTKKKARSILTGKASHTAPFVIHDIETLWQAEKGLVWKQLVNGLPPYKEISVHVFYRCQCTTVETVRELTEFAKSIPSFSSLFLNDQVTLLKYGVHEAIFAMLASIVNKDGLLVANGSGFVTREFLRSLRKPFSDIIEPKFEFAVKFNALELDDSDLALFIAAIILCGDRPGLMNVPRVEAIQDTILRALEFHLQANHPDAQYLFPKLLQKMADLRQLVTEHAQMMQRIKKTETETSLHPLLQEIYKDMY
Excerpt: as §1, §2, §3, §4
PPARδ receptor binding was assayed in HNM10 (50 mM Hepes, pH 7.4, 10 mM NaCl, 5 mM MgCl2, 0.15 mg/ml fatty acid-free BSA and 15 mM DTT). For each 96 well reaction a 500 ng equivalent of GST-PPARδ-LBD fusion protein and radioligand, e.g. 20000 dpm {2-methyl-4-[4-methyl-2-(4-trifluoromethyl-phenyl)-thiazol-5-yl-ditritiomethylsulfanyl]-phenoxy}-acetic acid, was bound to 10 μg SPA beads (PharmaciaAmersham) in a final volume of 50 μl by shaking. The resulting slurry was incubated for 1 h at RT and centrifuged for 2 min at 1300 g. […] Radioligand was added and the reaction incubated at RT for 1 h and scintillation proximity counting performed in the presence of test compounds was determined. All binding assays were performed in 96 well plates and the amount of bound ligand was measured on a Packard TopCount using OptiPlates (Packard). […]

[3] = target: T3, PPARγ (Mus musculus, UniProt P37238); test: PPARγ radioligand binding assay (scintillation proximity, GST-PPARγ-LBD); conditions: GST-PPARγ-LBD fusion protein, SPA radioligand binding
T3 construct: PPARγ (aa 174 to 476); made in house; host or cells: E. coli BL21 (pLysS)
T3 sequence (P37238 204-505): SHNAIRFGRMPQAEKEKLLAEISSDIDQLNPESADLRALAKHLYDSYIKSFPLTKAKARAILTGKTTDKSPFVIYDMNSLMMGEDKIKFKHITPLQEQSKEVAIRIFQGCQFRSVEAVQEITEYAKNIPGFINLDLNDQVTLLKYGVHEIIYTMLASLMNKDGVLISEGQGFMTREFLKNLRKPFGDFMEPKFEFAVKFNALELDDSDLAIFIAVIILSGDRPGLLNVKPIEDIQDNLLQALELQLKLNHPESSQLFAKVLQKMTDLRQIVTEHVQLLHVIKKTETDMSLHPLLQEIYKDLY
Excerpt: as §1, §2, §3, §4
as §5, with “PPARγ” for “PPARα”, “GST-PPARγ-LBD” for “GST-PPARα-LBD”, “ul” for “μl”

Row | SMILES | melting point [°C] | IC50 [1] [nM] | IC50 [2] [nM] | IC50 [3] [nM]
1 | Cc1nc(-c2ccc(C(F)(F)F)cc2)ccc1C(C)N(C)c1ccc(OCC(=O)O)c2ccccc12 (racemic) [Example 1, [rac]-[4-(Methyl-{1-[2-methyl-6-(4-trifluoromethyl-phenyl)-pyridin-3-yl]-ethyl}-amino)-naphthalen-1-yloxy]-acetic acid] | 157 to 158 |  |  | 
2 | Cc1nc(-c2ccc(C(F)(F)F)cc2)ccc1COc1ccc(CCC(=O)O)c2c1CCCC2 [Example 5, 3-{4-[2-Methyl-6-(4-trifluoromethyl-phenyl)-pyridin-3-ylmethoxy]-5,6,7,8-tetrahydro-naphthalen-1-yl}-propionic acid] |  | 716 | 106 | > 10000
3 | COC(Cc1cc(OCCc2ccc(-c3ccc(C(F)(F)F)cc3)nc2C)c2ccccc2c1)C(=O)O (racemic) [Example 4, [rac]-2-Methoxy-3-(4-{2-[2-methyl-6-(4-trifluoromethyl-phenyl)-pyridin-3-yl]-ethoxy}-naphthalen-2-yl)-propionic acid] |  | 37 | 295 | > 10000

More lines, now with the values ahead:

Row | melting point [°C] | IC50 [1] [nM] | IC50 [2] [nM] | IC50 [3] [nM] | SMILES
4 | 76 to 78 |  |  |  | CCC(c1ccc(-c2cccc(C(F)(F)F)c2)nc1C)N(C)c1ccc(OCC(=O)O)c2ccccc12 (racemic) [Example 2, [rac]-[4-(Methyl-{1-[2-methyl-6-(3-trifluoromethyl-phenyl)-pyridin-3-yl]-propyl}-amino)-naphthalen-1-yloxy]-acetic acid]
5 |  | 3580 | 65 | > 10000 | CCCC(c1ccc(-c2cccc(C(F)(F)F)c2)nc1C)N(C)c1ccc(OCC(=O)O)c2ccccc12 (racemic) [Example 3, [rac]-[4-(Methyl-{1-[2-methyl-6-(3-trifluoromethyl-phenyl)-pyridin-3-yl]-butyl}-amino)-naphthalen-1-yloxy]-acetic acid]

From patent US7495001B2, “Benzannelated derivatives, their manufacture and use as pharmaceutical agents” (Hoffmann-La Roche Inc., priority 2003, dated 2009)
